The source of these data is US20110098296A1, “Thiazole And Oxazole Kinase Inhibitors” (priority 2007, published 2011).

One test concerns the target T1, ErbB2 (Homo sapiens, UniProt P04626).
T1 construct: made in house; host or cells: baculovirus expression system
The test can be described thus: ErbB-2 substrate phosphorylation assay (HTRF). The format is biochemical. The conditions noted are these: Method (A): Enzyme Mix incubated with compound at 20° C. for 1 hr, reaction started by adding Substrate Mix. An outline of the steps: (§1)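 Baculovirus-expressed kinase (0.8 nM EGFR or 10 nM ErbB2 in enzyme mix) with Peptide C 0.8 μM and ATP 20 μM (substrate-mix levels), MOPS pH 7.5, MnCl2; 90 min, 20 °C, HTRF anti-phosphotyrosine. Method A adds 1 h enzyme–compound preincubation; B none. pIC50, final compound 0.00027–47.6 μM.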
Background: TR-FRET usually uses a lanthanide donor and a delayed reading to cut background.

The target of a further test is T2, EGFR (Homo sapiens, UniProt P00533).
T2 construct: made in house; host or cells: baculovirus expression system
The test can be described thus: EGFR substrate phosphorylation assay (HTRF). It is filed as biochemical. The conditions noted are these: Method (A): Enzyme Mix incubated with compound at 20° C. for 1 hr, reaction started by adding Substrate Mix. An outline of the steps:
as §1

T2 sequence (P00533 25-1210): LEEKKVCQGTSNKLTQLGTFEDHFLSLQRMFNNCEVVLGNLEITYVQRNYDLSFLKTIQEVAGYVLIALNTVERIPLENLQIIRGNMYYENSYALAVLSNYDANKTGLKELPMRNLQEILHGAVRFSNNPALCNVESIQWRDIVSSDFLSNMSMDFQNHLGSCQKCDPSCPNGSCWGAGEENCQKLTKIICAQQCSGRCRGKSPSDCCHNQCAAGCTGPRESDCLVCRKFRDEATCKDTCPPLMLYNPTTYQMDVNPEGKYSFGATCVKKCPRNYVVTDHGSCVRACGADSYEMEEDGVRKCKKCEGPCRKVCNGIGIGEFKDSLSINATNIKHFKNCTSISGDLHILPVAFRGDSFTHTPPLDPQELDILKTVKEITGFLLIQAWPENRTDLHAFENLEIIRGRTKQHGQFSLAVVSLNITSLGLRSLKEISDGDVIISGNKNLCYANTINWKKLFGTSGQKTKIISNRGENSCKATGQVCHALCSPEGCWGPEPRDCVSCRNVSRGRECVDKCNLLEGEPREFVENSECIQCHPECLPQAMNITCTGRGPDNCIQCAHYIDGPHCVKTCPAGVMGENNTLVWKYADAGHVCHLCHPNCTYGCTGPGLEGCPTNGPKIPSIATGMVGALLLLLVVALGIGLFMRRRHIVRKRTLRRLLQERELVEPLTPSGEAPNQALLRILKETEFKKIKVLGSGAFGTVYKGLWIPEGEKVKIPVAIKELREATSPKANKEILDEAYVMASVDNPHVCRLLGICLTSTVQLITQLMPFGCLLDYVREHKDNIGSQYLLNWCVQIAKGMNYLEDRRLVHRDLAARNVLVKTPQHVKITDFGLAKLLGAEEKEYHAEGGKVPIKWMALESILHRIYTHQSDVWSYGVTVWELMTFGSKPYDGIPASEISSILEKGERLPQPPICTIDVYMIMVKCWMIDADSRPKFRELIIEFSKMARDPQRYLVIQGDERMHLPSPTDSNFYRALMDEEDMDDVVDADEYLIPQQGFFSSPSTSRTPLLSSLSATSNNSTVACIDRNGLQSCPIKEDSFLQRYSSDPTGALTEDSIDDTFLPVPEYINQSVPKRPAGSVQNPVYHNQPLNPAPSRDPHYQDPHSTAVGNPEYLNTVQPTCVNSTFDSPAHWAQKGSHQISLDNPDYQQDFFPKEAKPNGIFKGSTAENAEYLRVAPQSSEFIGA
T1 sequence (P04626 23-1255): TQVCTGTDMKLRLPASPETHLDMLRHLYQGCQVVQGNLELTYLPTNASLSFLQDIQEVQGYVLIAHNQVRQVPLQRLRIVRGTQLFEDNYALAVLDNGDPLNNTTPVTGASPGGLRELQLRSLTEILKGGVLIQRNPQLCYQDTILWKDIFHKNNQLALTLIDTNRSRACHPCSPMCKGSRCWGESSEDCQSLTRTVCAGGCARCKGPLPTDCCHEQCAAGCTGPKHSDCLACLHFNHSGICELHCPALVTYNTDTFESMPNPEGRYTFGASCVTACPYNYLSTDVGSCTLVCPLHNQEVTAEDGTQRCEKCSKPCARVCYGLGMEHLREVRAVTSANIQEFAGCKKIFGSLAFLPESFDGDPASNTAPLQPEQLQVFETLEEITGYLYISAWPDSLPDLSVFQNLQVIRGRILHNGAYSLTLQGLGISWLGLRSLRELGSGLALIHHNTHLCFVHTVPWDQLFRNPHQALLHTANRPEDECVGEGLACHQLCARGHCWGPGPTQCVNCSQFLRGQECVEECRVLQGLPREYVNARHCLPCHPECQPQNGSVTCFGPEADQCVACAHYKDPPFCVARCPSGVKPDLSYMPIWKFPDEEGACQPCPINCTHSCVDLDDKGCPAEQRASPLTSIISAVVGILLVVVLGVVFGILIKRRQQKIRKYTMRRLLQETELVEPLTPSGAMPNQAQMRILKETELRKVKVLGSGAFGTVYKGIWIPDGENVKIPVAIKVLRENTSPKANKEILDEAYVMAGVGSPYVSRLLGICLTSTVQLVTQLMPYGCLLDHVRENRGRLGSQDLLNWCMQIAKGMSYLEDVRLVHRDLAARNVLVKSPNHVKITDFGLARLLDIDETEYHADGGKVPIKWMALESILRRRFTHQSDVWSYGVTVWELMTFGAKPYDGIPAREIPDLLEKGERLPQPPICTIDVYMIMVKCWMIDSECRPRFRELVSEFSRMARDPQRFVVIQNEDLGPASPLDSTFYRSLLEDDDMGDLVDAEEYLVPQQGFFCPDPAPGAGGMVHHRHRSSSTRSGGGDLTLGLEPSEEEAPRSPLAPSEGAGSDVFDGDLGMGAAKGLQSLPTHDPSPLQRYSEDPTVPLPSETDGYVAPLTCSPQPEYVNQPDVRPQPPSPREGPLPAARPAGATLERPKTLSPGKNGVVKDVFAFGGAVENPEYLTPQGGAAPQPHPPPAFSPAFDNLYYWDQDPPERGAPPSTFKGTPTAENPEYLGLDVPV

A word on the IC50: it is the concentration that inhibits the measured activity by half. In the case of `COc1cc(Nc2nccc(-c3sc(N)nc3-c3cccc(NC(=O)c4c(F)cccc4F)c3)n2)cc(OC)c1OC` [Example 16, N-[3-(2-Amino-5-{2-[(3,4,5-trimethoxyphenyl)amino]pyrimidiN-4-yl}-1,3-thiazol-4-yl)phenyl]-2,6-difluorobenzamide], the IC50 at ErbB2 and on EGFR was under 100 nM throughout.
Turning to `Cc1cc(-c2sc(N)nc2-c2cccc(NC(=O)c3c(F)cccc3F)c2)nc(Nc2cccc(F)c2)n1` [Example 48, N-[3-(2-Amino-5-{2-[(3-fluorophenyl)amino]-6-methyl-4-pyrimidinyl}-1,3-thiazol-4-yl)phenyl]-2,6-difluorobenzamide], the IC50 at ErbB2 was over 1000 nM; at EGFR, 100 to 1000 nM.
The matching figures for `Cc1nc(-c2cccc(NC(=O)c3cc(F)ccc3F)c2)c(-c2ccnc(Nc3ccc(OCCN(C)C)c(Cl)c3)n2)o1` [Example 142]: under 100 nM and under 100 nM.
On to `CCc1nc(-c2cccc(NC(=O)c3c(F)cccc3F)c2)c(-c2ccnc(Nc3cccc(CN4CCCC4)c3)n2)s1` [Example 115, N-{3-[2-Ethyl-5-(2-{[3-(1-pyrrolidinylmethyl)phenyl]amino}-4-pyrimidinyl)-1,3-thiazol-4-yl]phenyl}-2,6-difluorobenzamide], for which the IC50 on ErbB2 and on EGFR was under 100 nM each time.
`Cc1nc(-c2cccc(NC(=O)c3c(F)cccc3F)c2)c(-c2ccnc(Nc3ccc(OCCN(C)C)c(Cl)c3)n2)s1` [Example 103, N-[3-(5-{2-[(3-Chloro-4-{[2-(dimethylamino)ethyl]oxy}phenyl)amino]-4-pyrimidinyl}-2-methyl-1,3-thiazol-4-yl)phenyl]-2,6-difluorobenzamide]: the IC50 on ErbB2 and on EGFR was under 100 nM throughout.
As for `Nc1nc(-c2cccc(C(=O)Nc3c(F)cccc3F)c2)c(-c2ccnc(Nc3cccc(CN4CCCC4)c3)n2)s1` [Example 77, 3-[2-Amino-5-(2-{[3-(1-pyrrolidinylmethyl)phenyl]amino}-4-pyrimidinyl)-1,3-thiazol-4-yl]-N-(2,6-difluorophenyl)benzamide], the half-inhibitory concentration (IC50) at ErbB2 and at EGFR was under 100 nM each time.
Regarding `CCNc1nc(-c2cccc(NC(=O)C3CC3)c2)c(-c2ccnc(Nc3ccc(OCCN4CCCC4)c(Cl)c3)n2)s1` [Example 63, N-{3-[5-{2-[(3-Chloro-4-{[2-(1-pyrrolidinyl)ethyl]oxy}phenyl)amino]-4-pyrimidinyl}-2-(ethylamino)-1,3-thiazol-4-yl]phenyl}cyclopropanecarboxamide], the half-maximal inhibitory concentration (IC50) on ErbB2 and on EGFR was under 100 nM in each case.
As for `COc1ccc(Nc2nccc(-c3sc(N)nc3-c3cccc(NC(=O)c4c(F)cccc4F)c3)n2)cc1N1CCNCC1` [Example 18, N-[3-(2-Amino-5-{2-[(4-methoxy-3-piperaziN-1-ylphenyl)amino]pyrimidiN-4-yl}-1,3-thiazol-4-yl)phenyl]-2,6-difluorobenzamide], the IC50 at ErbB2 and at EGFR was under 100 nM in each case.
`Cc1nc(-c2cccc(NC(=O)c3c(F)cccc3F)c2)c(-c2ccnc(Nc3ccc(OC4CCN(C(=O)OCc5ccccc5)CC4)c(F)c3)n2)s1` [Example 106]: the IC50 at ErbB2 and on EGFR was under 100 nM in each case.
